These results are taken from patent US10520509B2 (Washington State University, priority 2016, dated 2019).

The test system of series [1] is HeLa cells. Nature of the series: Cell viability assay (CCK-8) of DDP probe. Format: cell-based. The following applies: 10-100 μM, 6 h. Here is the method:
(§1) In another embodiment the DDP probes has been designed to visuals exogenous sulfur species in a living system. […] Additionally, the selectivity of the probes can be seen in FIG. 10. […] The probe (20 μm) was applied to the cells for 30 minutes, after which the extracellular probe was washed off and only a weak fluorescence was observed.
HeLa cells were cultured in DMEM high glucose medium supplemented with 10% fetal bovine serum (FBS) at 37° C. under an atmosphere of 5% CO2 and 95% air. The cells were then inoculated in 96-well plates and cultured overnight. DDP-1 in FBS-free medium were administered and cultured for 6 h. The cell viability was measured by cell counter kit (CCK)-8. The absorbance at 450 nm was measured with a microplate reader. Optical density (OD) of the 9 wells in the indicated groups was used to calculate percentage of cell viability according to the formula below: Percentage of cell viability=OD treatment group/OD control group×100% Cell Culture and Fluorescence Imaging

The subject of series [2] is HeLa cells. Nature of the series: Fluorescence imaging of H2S and H2Sn with DDP probe in cells. Format: cell-based. As to conditions: probe 20 μm 30 min. On the procedure:
as §1
The cells were grown on glass-bottom culture dishes (Corning Inc.) in DMEM supplemented with 10% (v/v) FBS, penicillin (100 U/mL) and streptomycin (100 μg/mL) at 37° C. under a humidified atmosphere containing 5% CO2. Before use, the adherent cells were washed one time with FBS-free DMEM. […] After removal of excess probe and washed with PBS (pH 7.4), the cells were incubated with 30 μM Na2S2 or 30 μM Na2S4 at room temperature for 20 min in PBS buffer (pH 7.4, containing 100 μM CTAB). Cell imaging was carried out after removal of the culture solution. For images of CSE-overexpressed COS7 cells.

Regarding `[N-]=[N+]=Nc1ccc2c(CC(=O)N3CCN(c4ccc5c(c4)Oc4cc(OC(=O)c6ccccc6SC(=O)c6ccccc6)ccc4C54OC(=O)c5ccccc54)CC3)cc(=O)oc2c1` (stereo not drawn) [DDP-1], in series [1], the “cytotoxicity (cell viability)” value is “low cytotoxicity”. The “fluorescence in cells after Na2S treatment” value in series [2] (Na2S 100 μm, blue and green channel) is “apparent fluorescence enhancement”. The “fluorescence in cells after Na2S2 or in situ generated H2Sn” value in series [2] (blue vs green channel) is reported as “blue channel decreased with a coinstantaneous increase in the green channel”.
